Values of other authors in patent US5229370A, “Water soluble branched beta cyclodextrin steroid complex” (priority 1992, dated 1993).

settings: under ambient conditions; reported

Point of comparison: CC(C)CCC[C@@H](C)[C@H]1CC[C@H]2[C@@H]3CC=C4C[C@@H](O)CC[C@]4(C)[C@H]3CC[C@]12C [cholesterol], “solubility of steroid in water” value 0.002 mg/mL. Against it:
- C[C@]12CC[C@H]3[C@@H](CCC4=CC(=O)CC[C@@]43C)[C@@H]1CC[C@@H]2O [testosterone] — 20-fold higher, 0.040 mg/mL
- CC(=O)[C@H]1CC[C@H]2[C@@H]3CCC4=CC(=O)CC[C@]4(C)[C@H]3CC[C@]12C [progesterone] — 8-fold higher, 0.016 mg/mL
